≈ marks a conversion by molar mass, not a printed value. Calls of active or inactive are those of the source. No cut-off for these calls is given here.
Legend:
[1] = tested on: Streptococcus pneumoniae; assay: Antibacterial activity against Streptococcus pneumoniae ATCC 49619 assessed as inhibition of bacterial growth incubated for 96 hrs by broth microdilution method; format: functional
[2] = tested on: Staphylococcus aureus; assay: Antibacterial activity against methicillin-resistant Staphylococcus aureus ATCC43300 assessed as inhibition of bacterial growth incubated for 96 hrs by broth microdilution method; format: functional
[3] = tested on: Staphylococcus epidermidis; assay: Antibacterial activity against methicillin-resistant Staphylococcus epidermidis ATCC 51625 assessed as inhibition of bacterial growth incubated for 96 hrs by broth microdilution method; format: functional
[4] = tested on: Escherichia coli; assay: Antibacterial activity against Escherichia coli ATCC 25922 assessed as inhibition of bacterial growth incubated for 96 hrs by broth microdilution method; format: functional
[5] = tested on: Staphylococcus aureus; assay: Antibacterial activity against Staphylococcus aureus ATCC 29213 assessed as inhibition of bacterial growth incubated for 96 hrs by broth microdilution method; format: functional
[6] = tested on: HEK293; assay: Cytotoxicity against HEK293 cells assessed as reduction in cell survival upto 120 ug/ml incubated for 6 hrs by CCK8 assay; format: toxicity, cell-based; conditions: human, hek293, 6 h, dose < 120 µg/ml
[7] = tested on: Staphylococcus aureus; assay: Antibacterial activity against methicillin-resistant Staphylococcus aureus ATCC43300 assessed as inhibition of bacterial growth measured on day 20; format: functional; conditions: ATCC43300, 480 h, time 20 day
[8] = Toxicity against Zebrafish assessed as reduction of survival of embryos measured after 96 hrs; design: species or system Danio rerio; conditions: in vivo
[9] = tested on: Staphylococcus aureus; assay: In vivo antibacterial activity against methicillin-resistant Staphylococcus aureus ATCC43300 infected in Kunming mouse assessed as increase in animal survival rate administered ip at 1 hr post-infection; format: functional; conditions: ATCC43300, 1 h
[10] = tested on: Staphylococcus aureus; assay: Antibacterial activity against methicillin-resistant Staphylococcus aureus ATCC43300 assessed as inhibition of bacterial growth measured on day 8; format: functional; conditions: ATCC43300, 192 h, time 8 day
[11] = tested on: HepG2; assay: Cytotoxicity against human HepG2 cells assessed as reduction in cell survival at 250 ug/ml incubated for 6 hrs by CCK8 assay; format: toxicity, cell-based; conditions: hepg2, 6 h, dose 250 µg/ml
[12] = tested on: Staphylococcus aureus; assay: Antibacterial activity against methicillin-resistant Staphylococcus aureus ATCC43300 assessed as inhibition of bacterial growth measured after 21 days; format: functional; conditions: ATCC43300, 504 h, time 21 day
[13] = Toxicity against zebrafish embryo assessed as teratogenic effect at 128 ug/ml measured after 96 hrs by microscopic analysis; design: species or system Danio rerio; conditions: in vivo, dose 128 µg/ml
[14] = tested on: Staphylococcus aureus; assay: Bactericidal activity against methicillin-resistant Staphylococcus aureus ATCC 43300 assessed as bacterial killing at 6XMIC incubated for 96 hrs in broth followed by culturing on agar plate for 12 hrs by time-kill kinetics analysis; format: functional; conditions: time 108 hrs
[15] = target: T1, 70S ribosome (Staphylococcus aureus) (UniProt Q2FW31+P0A0H0+Q2FW30+Q2FW19+Q2FYU5+Q2G2Q1+Q2FZ45+Q2FW15+Q2G111+Q2FW10+Q2FXY6+Q2FXZ7+Q2FZ25+Q2FW12+Q2FXK6+Q2FW23+Q2G113+P48940+Q2FW20+Q2FW39+Q2FYF9+Q2G0N9+P0A0F4+Q2FW38+Q2FW16+P0A0F8+Q2FW13+Q2FW33+Q2FW22+Q2FZ42+Q2G0P0+Q2FXQ1+Q2FXS8+Q2FW11+Q2FW08+Q2FW17+Q2FXT0+Q2FZ60+Q2FW14+P60430+P0A0G2+Q2FWD8+Q2FZF1+Q2FYU6+Q2FY22+Q2FUQ0+Q2FXQ0+Q2FW29+Q2FW06+Q2FW07+Q2FW18+Q2FW21+P48860+Q2G2T3); assay: Inhibition of ribosomal peptidyl transferase centre in methicillin-resistant Staphylococcus aureus ATCC43300 assessed as inhibition of bacterial cell division at 4XMIC by scanning electron microscopy; format: functional
[16] = target: T1, 70S ribosome (Staphylococcus aureus); assay: Inhibition of ribosomal peptidyl transferase centre in methicillin-resistant Staphylococcus aureus ATCC43300 assessed as bacterial cell membrane damage at 4XMIC by scanning electron microscopy; format: functional

| SMILES | MIC [1] [µg/mL] | MIC [2] [µg/mL] | MIC [3] [µg/mL] | MIC [4] [µg/mL] | MIC [5] [µg/mL] | also measured |
| --- | --- | --- | --- | --- | --- | --- |
| C=C[C@]1(C)C[C@@H](OC(=O)CSc2ccc(OCC(=O)N3CCS(=O)(=O)CC3)cc2)[C@]2(C)[C@H](C)CC[C@]3(CCC(=O)[C@H]32)[C@@H](C)[C@@H]1O | 0.25 (≈ 0.378 µM) | < 0.031 | < 0.031 | > 64 | < 0.031 |  |
| C=C[C@]1(C)C[C@@H](OC(=O)CSc2ccccc2OCc2ccc(-c3ccccc3C#N)cc2)[C@]2(C)[C@H](C)CC[C@]3(CCC(=O)[C@H]32)[C@@H](C)[C@@H]1O | 2 (≈ 2.95 µM) | 2 (≈ 2.95 µM) | 4 (≈ 5.9 µM) | > 64 | 2 (≈ 2.95 µM) |  |
| C=C[C@]1(C)C[C@@H](OC(=O)CSc2ccc(OCc3ccc(-c4ccccc4C#N)cc3)cc2)[C@]2(C)[C@H](C)CC[C@]3(CCC(=O)[C@H]32)[C@@H](C)[C@@H]1O | 2 (≈ 2.95 µM) | 2 (≈ 2.95 µM) | 4 (≈ 5.9 µM) | > 64 | 4 (≈ 5.9 µM) |  |
| C=C[C@]1(C)C[C@@H](OC(=O)CSc2ccc(OCCCC)cc2)[C@]2(C)[C@H](C)CC[C@]3(CCC(=O)[C@H]32)[C@@H](C)[C@@H]1O | 0.5 (≈ 0.921 µM) | 1 (≈ 1.84 µM) | 0.5 (≈ 0.921 µM) | > 64 | 2 (≈ 3.68 µM) |  |
| C=C[C@]1(C)C[C@@H](OC(=O)CSc2cccc(OCc3ccc(C)cc3)c2)[C@]2(C)[C@H](C)CC[C@]3(CCC(=O)[C@H]32)[C@@H](C)[C@@H]1O | 16 (≈ 27.1 µM) | 16 (≈ 27.1 µM) | 32 (≈ 54.2 µM) | > 64 | 16 (≈ 27.1 µM) |  |
| C=C[C@]1(C)C[C@@H](OC(=O)CSCCN(CC)CC)[C@]2(C)[C@H](C)CC[C@]3(CCC(=O)[C@H]32)[C@@H](C)[C@@H]1O [TIAMULIN] | 0.5 (≈ 1.01 µM) | 0.5 (≈ 1.01 µM) | 0.25 (≈ 0.506 µM) | > 64 | 0.5 (≈ 1.01 µM) | Activity [6]: Toxic; MIC [7]: 32 µg/mL (≈ 64.8 µM); LC50 at 96 h [8]: 24 µg/mL (≈ 48.6 µM); ED50 [9]: 11.4 mg/kg; MIC [10]: 8 µg/mL (≈ 16.2 µM); Activity [11]: Toxic |
| C=C[C@]1(C)C[C@@H](OC(=O)CSc2cccc(O)c2)[C@]2(C)[C@H](C)CC[C@]3(CCC(=O)[C@H]32)[C@@H](C)[C@@H]1O | 0.125 (≈ 0.257 µM) | 0.062 (≈ 0.127 µM) | 0.125 (≈ 0.257 µM) | > 64 | 0.125 (≈ 0.257 µM) |  |
| C=C[C@]1(C)C[C@@H](OC(=O)CSc2cccc(OCC(=O)N3CCS(=O)(=O)CC3)c2)[C@]2(C)[C@H](C)CC[C@]3(CCC(=O)[C@H]32)[C@@H](C)[C@@H]1O | 0.125 (≈ 0.189 µM) | < 0.031 | < 0.031 | > 64 | < 0.031 | Activity [6]: Toxic; MIC [12]: 4 µg/mL (≈ 6.04 µM); Activity [13]: Non-toxic; Activity [14]: 99.99%; inhibition [15]: Active; LC50 at 96 h [8]: 149 µg/mL (≈ 225 µM); Activity [11]: Toxic; inhibition [16]: Active |
| C=C[C@]1(C)C[C@@H](OC(=O)CSc2ccccc2OCc2ccc(C(=O)OC(C)(C)C)cc2)[C@]2(C)[C@H](C)CC[C@]3(CCC(=O)[C@H]32)[C@@H](C)[C@@H]1O | 16 (≈ 23.6 µM) | 32 (≈ 47.3 µM) | 16 (≈ 23.6 µM) | > 64 | 16 (≈ 23.6 µM) |  |
| C=C[C@]1(C)C[C@@H](OC(=O)CSc2ccccc2OCCCC)[C@]2(C)[C@H](C)CC[C@]3(CCC(=O)[C@H]32)[C@@H](C)[C@@H]1O | 0.5 (≈ 0.921 µM) | 0.5 (≈ 0.921 µM) | 0.25 (≈ 0.461 µM) | > 64 | 0.5 (≈ 0.921 µM) |  |
| C=CCCOc1ccc(SCC(=O)O[C@@H]2C[C@@](C)(C=C)[C@@H](O)[C@H](C)[C@]34CCC(=O)[C@H]3[C@@]2(C)[C@H](C)CC4)cc1 | 0.125 (≈ 0.231 µM) | 0.25 (≈ 0.462 µM) | 0.125 (≈ 0.231 µM) | > 64 | 0.25 (≈ 0.462 µM) |  |
| C=C[C@]1(C)C[C@@H](OC(=O)CSc2ccc(OCc3ccc(C(=O)OC(C)(C)C)cc3)cc2)[C@]2(C)[C@H](C)CC[C@]3(CCC(=O)[C@H]32)[C@@H](C)[C@@H]1O | 8 (≈ 11.8 µM) | 32 (≈ 47.3 µM) | 8 (≈ 11.8 µM) | > 64 | 4 (≈ 5.91 µM) |  |
| C=C[C@]1(C)C[C@@H](OC(=O)CSc2cccc(OCC#CC)c2)[C@]2(C)[C@H](C)CC[C@]3(CCC(=O)[C@H]32)[C@@H](C)[C@@H]1O | < 0.031 | 0.125 (≈ 0.232 µM) | 0.125 (≈ 0.232 µM) | > 64 | 0.125 (≈ 0.232 µM) |  |
| C=C[C@]1(C)C[C@@H](OC(=O)CSc2ccc(O)cc2)[C@]2(C)[C@H](C)CC[C@]3(CCC(=O)[C@H]32)[C@@H](C)[C@@H]1O | 0.125 (≈ 0.257 µM) | 0.062 (≈ 0.127 µM) | 0.062 (≈ 0.127 µM) | > 64 | 0.062 (≈ 0.127 µM) |  |
| C=C[C@]1(C)C[C@@H](OC(=O)CSc2cccc(OCc3ccc(-c4ccccc4C#N)cc3)c2)[C@]2(C)[C@H](C)CC[C@]3(CCC(=O)[C@H]32)[C@@H](C)[C@@H]1O | 2 (≈ 2.95 µM) | 2 (≈ 2.95 µM) | 8 (≈ 11.8 µM) | > 64 | 4 (≈ 5.9 µM) |  |
| C=C[C@]1(C)C[C@@H](OC(=O)CSc2ccc(OCc3ccc(C)cc3)cc2)[C@]2(C)[C@H](C)CC[C@]3(CCC(=O)[C@H]32)[C@@H](C)[C@@H]1O | 16 (≈ 27.1 µM) | 16 (≈ 27.1 µM) | 16 (≈ 27.1 µM) | > 64 | 16 (≈ 27.1 µM) |  |
| C=C[C@]1(C)C[C@@H](OC(=O)CSc2ccccc2OCc2ccc(C)cc2)[C@]2(C)[C@H](C)CC[C@]3(CCC(=O)[C@H]32)[C@@H](C)[C@@H]1O | 16 (≈ 27.1 µM) | 32 (≈ 54.2 µM) | 32 (≈ 54.2 µM) | > 64 | 16 (≈ 27.1 µM) |  |
| C=C[C@]1(C)C[C@@H](OC(=O)CSc2ccccc2O)[C@]2(C)[C@H](C)CC[C@]3(CCC(=O)[C@H]32)[C@@H](C)[C@@H]1O | 0.125 (≈ 0.257 µM) | 0.125 (≈ 0.257 µM) | 0.125 (≈ 0.257 µM) | > 64 | 0.125 (≈ 0.257 µM) |  |
| C=C[C@]1(C)C[C@@H](OC(=O)CSc2cccc(OCc3ccc(C(=O)OC(C)(C)C)cc3)c2)[C@]2(C)[C@H](C)CC[C@]3(CCC(=O)[C@H]32)[C@@H](C)[C@@H]1O | 8 (≈ 11.8 µM) | 32 (≈ 47.3 µM) | 8 (≈ 11.8 µM) | > 64 | 4 (≈ 5.91 µM) |  |
| C=C[C@]1(C)C[C@@H](OC(=O)CSc2ccc(OCC#CC)cc2)[C@]2(C)[C@H](C)CC[C@]3(CCC(=O)[C@H]32)[C@@H](C)[C@@H]1O | 0.062 (≈ 0.115 µM) | 0.25 (≈ 0.464 µM) | 0.125 (≈ 0.232 µM) | > 64 | 0.25 (≈ 0.464 µM) |  |
| C=CCCOc1cccc(SCC(=O)O[C@@H]2C[C@@](C)(C=C)[C@@H](O)[C@H](C)[C@]34CCC(=O)[C@H]3[C@@]2(C)[C@H](C)CC4)c1 | 0.5 (≈ 0.925 µM) | 0.5 (≈ 0.925 µM) | 0.25 (≈ 0.462 µM) | > 64 | 0.5 (≈ 0.925 µM) |  |
| C=CCCOc1ccccc1SCC(=O)O[C@@H]1C[C@@](C)(C=C)[C@@H](O)[C@H](C)[C@]23CCC(=O)[C@H]2[C@@]1(C)[C@H](C)CC3 | < 0.031 | 0.125 (≈ 0.231 µM) | 0.031 (≈ 0.0573 µM) | > 64 | < 0.031 |  |
| C=C[C@]1(C)C[C@@H](OC(=O)CSc2ccccc2OCC#CC)[C@]2(C)[C@H](C)CC[C@]3(CCC(=O)[C@H]32)[C@@H](C)[C@@H]1O | < 0.031 | 0.125 (≈ 0.232 µM) | 0.125 (≈ 0.232 µM) | > 64 | 0.125 (≈ 0.232 µM) |  |
| C=C[C@]1(C)C[C@@H](OC(=O)CSc2cccc(OCCCC)c2)[C@]2(C)[C@H](C)CC[C@]3(CCC(=O)[C@H]32)[C@@H](C)[C@@H]1O | 2 (≈ 3.68 µM) | 2 (≈ 3.68 µM) | 1 (≈ 1.84 µM) | > 64 | 2 (≈ 3.68 µM) |  |
